Assay results from ChEMBL document CHEMBL1146304, “Alpha-methyltryptamine sulfonamide derivatives as novel glucocorticoid receptor ligands” (Bioorg Med Chem Lett, 2007).

Tests used:
Glucocorticoid receptor = target: T1, Glucocorticoid receptor (Homo sapiens, UniProt P04150)
T1 sequence (P04150 whole entry): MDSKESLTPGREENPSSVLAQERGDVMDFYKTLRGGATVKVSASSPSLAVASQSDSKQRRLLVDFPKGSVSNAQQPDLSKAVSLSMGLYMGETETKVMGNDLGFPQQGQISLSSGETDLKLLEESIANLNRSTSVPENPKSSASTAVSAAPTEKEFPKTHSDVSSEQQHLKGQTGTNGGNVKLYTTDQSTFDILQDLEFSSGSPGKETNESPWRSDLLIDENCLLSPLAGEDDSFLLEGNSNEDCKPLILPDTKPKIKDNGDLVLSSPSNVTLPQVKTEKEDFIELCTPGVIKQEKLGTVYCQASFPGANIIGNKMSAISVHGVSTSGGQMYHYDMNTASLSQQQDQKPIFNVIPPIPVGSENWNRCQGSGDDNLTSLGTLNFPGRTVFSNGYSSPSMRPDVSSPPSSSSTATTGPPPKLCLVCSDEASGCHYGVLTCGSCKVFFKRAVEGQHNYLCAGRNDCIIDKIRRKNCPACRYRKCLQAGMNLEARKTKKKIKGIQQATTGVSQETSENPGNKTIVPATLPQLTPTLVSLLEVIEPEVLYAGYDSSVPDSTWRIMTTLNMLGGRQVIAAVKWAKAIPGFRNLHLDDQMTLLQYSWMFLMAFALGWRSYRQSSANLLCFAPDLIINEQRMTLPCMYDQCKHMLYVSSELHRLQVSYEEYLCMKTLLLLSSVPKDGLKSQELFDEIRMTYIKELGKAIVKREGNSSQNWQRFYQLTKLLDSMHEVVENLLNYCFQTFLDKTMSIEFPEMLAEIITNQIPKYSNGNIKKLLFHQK

Progesterone receptor = target: T2, Progesterone receptor (Homo sapiens, UniProt P06401); experiment: Inhibition of human PR
T2 sequence (P06401 whole entry): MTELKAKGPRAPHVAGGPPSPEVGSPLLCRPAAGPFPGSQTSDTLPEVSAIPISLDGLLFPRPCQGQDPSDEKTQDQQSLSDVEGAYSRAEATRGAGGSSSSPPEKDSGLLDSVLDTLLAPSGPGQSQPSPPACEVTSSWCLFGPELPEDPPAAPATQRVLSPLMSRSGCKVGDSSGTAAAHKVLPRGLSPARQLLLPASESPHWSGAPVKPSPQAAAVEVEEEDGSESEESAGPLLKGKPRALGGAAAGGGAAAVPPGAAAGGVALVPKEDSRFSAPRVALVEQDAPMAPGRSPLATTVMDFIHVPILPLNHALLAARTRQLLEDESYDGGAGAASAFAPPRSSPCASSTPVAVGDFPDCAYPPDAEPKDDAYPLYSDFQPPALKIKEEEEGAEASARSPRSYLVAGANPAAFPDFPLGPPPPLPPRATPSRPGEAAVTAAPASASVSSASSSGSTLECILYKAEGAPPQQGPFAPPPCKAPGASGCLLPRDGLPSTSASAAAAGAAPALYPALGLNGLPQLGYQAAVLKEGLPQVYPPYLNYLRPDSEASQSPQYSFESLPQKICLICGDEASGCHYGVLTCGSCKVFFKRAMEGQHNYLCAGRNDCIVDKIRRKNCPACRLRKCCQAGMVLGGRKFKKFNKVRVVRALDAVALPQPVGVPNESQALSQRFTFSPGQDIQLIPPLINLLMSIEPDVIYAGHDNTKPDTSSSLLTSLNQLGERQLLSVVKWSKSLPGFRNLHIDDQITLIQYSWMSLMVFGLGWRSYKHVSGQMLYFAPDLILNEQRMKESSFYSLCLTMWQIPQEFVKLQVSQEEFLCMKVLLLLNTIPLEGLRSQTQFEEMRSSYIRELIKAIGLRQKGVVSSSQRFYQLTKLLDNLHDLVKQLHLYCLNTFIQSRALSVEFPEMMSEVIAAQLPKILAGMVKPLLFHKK

[1] = target: T3, Mineralocorticoid receptor (Homo sapiens, UniProt P08235); experiment: Inhibition of human MR
T3 sequence (P08235 whole entry): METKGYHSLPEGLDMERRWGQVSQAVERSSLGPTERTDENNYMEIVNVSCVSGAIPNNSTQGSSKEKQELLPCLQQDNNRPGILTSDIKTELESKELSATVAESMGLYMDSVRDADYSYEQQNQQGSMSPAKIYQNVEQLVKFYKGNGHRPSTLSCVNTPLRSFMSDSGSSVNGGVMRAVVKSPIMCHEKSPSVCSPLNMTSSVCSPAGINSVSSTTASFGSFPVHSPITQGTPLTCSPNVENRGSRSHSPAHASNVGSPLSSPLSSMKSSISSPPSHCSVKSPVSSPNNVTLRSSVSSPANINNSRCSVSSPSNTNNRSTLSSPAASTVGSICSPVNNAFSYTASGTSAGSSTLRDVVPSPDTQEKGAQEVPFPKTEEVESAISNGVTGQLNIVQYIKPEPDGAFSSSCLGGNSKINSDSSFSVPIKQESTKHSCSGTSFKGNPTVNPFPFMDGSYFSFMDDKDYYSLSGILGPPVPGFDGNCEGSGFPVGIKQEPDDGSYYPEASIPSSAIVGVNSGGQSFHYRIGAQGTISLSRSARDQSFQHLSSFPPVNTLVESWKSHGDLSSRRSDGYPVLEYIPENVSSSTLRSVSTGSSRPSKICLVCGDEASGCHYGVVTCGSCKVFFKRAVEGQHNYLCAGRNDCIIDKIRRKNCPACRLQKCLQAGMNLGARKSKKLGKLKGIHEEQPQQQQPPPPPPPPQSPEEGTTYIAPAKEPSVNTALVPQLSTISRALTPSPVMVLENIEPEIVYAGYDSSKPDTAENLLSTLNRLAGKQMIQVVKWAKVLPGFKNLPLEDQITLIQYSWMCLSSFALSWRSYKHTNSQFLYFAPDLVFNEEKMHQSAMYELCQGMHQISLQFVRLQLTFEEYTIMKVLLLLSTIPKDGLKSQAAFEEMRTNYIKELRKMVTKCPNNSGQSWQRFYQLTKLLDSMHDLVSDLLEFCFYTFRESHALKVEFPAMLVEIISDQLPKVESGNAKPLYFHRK

Homo sapiens [2] = organism: Homo sapiens; experiment: Selectivity for human glucocorticoid receptor over human mineralocorticoid receptor
Homo sapiens [3] = organism: Homo sapiens; experiment: Selectivity for human glucocorticoid receptor over human progesterone receptor

| IC50 (Glucocorticoid receptor) | SMILES | further results |
| --- | --- | --- |
| > 2000 nM | COC(=O)[C@@H](Cc1c[nH]c2ccccc12)NS(=O)(=O)c1c(C)cc(C)cc1C | – |
| > 10000 nM | CC(Cc1c[nH]c2ccccc12)NS(=O)(=O)c1cc(Cl)cc(Cl)c1O (stereo unspecified) | – |
| > 10000 nM | CC(Cc1c[nH]c2ccccc12)NS(=O)(=O)c1ccc([N+](=O)[O-])cc1 (stereo unspecified) | – |
| 65 nM | Cc1cc(C)c(S(=O)(=O)NC(C)Cc2c[nH]c3ccc(F)cc23)c(C)c1 (stereo unspecified) | – |
| > 2000 nM | COC(=O)[C@H](Cc1c[nH]c2ccccc12)NS(=O)(=O)c1c(C)cc(C)cc1C | – |
| 280 nM | Cc1cccc(Cl)c1S(=O)(=O)NC(C)Cc1c[nH]c2ccccc12 (stereo unspecified) | – |
| 6900 nM | CC(Cc1c[nH]c2ccccc12)NS(=O)(=O)c1ccc(Cl)c(Cl)c1 (stereo unspecified) | – |
| > 2000 nM | Cc1cc(C)c(S(=O)(=O)NC(C)Cc2cc3ccccc3[nH]2)c(C)c1 (stereo unspecified) | – |
| > 10000 nM | CC(=O)Nc1ccc(S(=O)(=O)NC(C)Cc2c[nH]c3ccccc23)cc1 (stereo unspecified) | – |
| 64 nM | CC(Cc1c[nH]c2ccccc12)NS(=O)(=O)c1c(Cl)cc(Cl)cc1Cl (stereo unspecified) | IC50 (Progesterone receptor): 570 nM; IC50 [1]: 130 nM; Ratio IC50 (Homo sapiens [3]): 8 |
| 820 nM | Cc1c(Cl)cccc1S(=O)(=O)NC(C)Cc1c[nH]c2ccccc12 (stereo unspecified) | – |
| 1300 nM | Cc1cc(C)c(S(=O)(=O)N(C)C(C)Cc2c[nH]c3ccccc23)c(C)c1 (stereo unspecified) | – |
| 4100 nM | CC(Cc1c[nH]c2ccccc12)NS(=O)(=O)c1cccc(Cl)c1 (stereo unspecified) | – |
| > 2000 nM | CC(Cc1c[nH]c2ccccc12)NC(=O)Nc1c(Cl)cc(Cl)cc1Cl (stereo unspecified) | – |
| > 10000 nM | CC(Cc1c[nH]c2ccccc12)NS(=O)(=O)c1ccccc1[N+](=O)[O-] (stereo unspecified) | – |
| 29 nM | Cc1cc(C)c(S(=O)(=O)N[C@@H](C)Cc2c[nH]c3ccccc23)c(C)c1 | IC50 (Progesterone receptor): 1200 nM; IC50 [1]: 1000 nM; Ratio IC50 (Homo sapiens [2]): 34 |
| 570 nM | Cc1[nH]c2ccccc2c1CC(C)NS(=O)(=O)c1c(Cl)cc(Cl)cc1Cl (stereo unspecified) | – |
| > 2000 nM | CC(Cc1cn(C)c2ccccc12)NS(=O)(=O)c1c(Cl)cc(Cl)cc1Cl (stereo unspecified) | – |
| 5700 nM | Cc1ccc(S(=O)(=O)NC(C)Cc2c[nH]c3ccccc23)cc1 (stereo unspecified) | – |
| 1300 nM | CC(Cc1c[nH]c2ccccc12)NS(=O)(=O)c1cc(Cl)ccc1Cl (stereo unspecified) | – |
| 3600 nM | CC(Cc1c[nH]c2ccccc12)NS(=O)(=O)c1cc(F)c(Br)cc1F (stereo unspecified) | – |
| 120 nM | Cc1cc(C)c(S(=O)(=O)NC(C)Cc2c[nH]c3c(C)cccc23)c(C)c1 (stereo unspecified) | – |
| > 2000 nM | Cc1cc(C)c(S(=O)(=O)NC(CO)Cc2c[nH]c3ccccc23)c(C)c1 (stereo unspecified) | – |
| 1600 nM | CCCc1ccc(S(=O)(=O)NC(C)Cc2c[nH]c3ccccc23)cc1 (stereo unspecified) | – |

| IC50 (Glucocorticoid receptor) | SMILES | further results |
| --- | --- | --- |
| > 2000 nM | Cc1cc(C)c(S(=O)(=O)N[C@H](C)Cc2c[nH]c3ccccc23)c(C)c1 | IC50 (Progesterone receptor): > 2000 nM; IC50 [1]: 520 nM |
| 1900 nM | CC(Cc1c[nH]c2ccccc12)NS(=O)(=O)c1ccc(Cl)c(Cl)c1Cl (stereo unspecified) | – |
| 480 nM | CC(Cc1c[nH]c2ccccc12)NS(=O)(=O)c1ccc(Cl)cc1Cl (stereo unspecified) | IC50 (Progesterone receptor): > 2000 nM; IC50 [1]: 850 nM |
| > 2000 nM | COc1ccc2[nH]cc(CC(C)NS(=O)(=O)c3c(Cl)cc(Cl)cc3Cl)c2c1 (stereo unspecified) | – |
| 2100 nM | CC(Cc1c[nH]c2ccccc12)NS(=O)(=O)c1ccc(Cl)cc1 (stereo unspecified) | – |
| 67 nM | CC(Cc1c[nH]c2ccccc12)NS(=O)(=O)c1c(C(C)C)cc(C(C)C)cc1C(C)C (stereo unspecified) | IC50 (Progesterone receptor): > 2000 nM; IC50 [1]: > 2000 nM |
| 79 nM | Cc1cc(C)c(S(=O)(=O)NC(C)Cc2c[nH]c3cc(F)ccc23)c(C)c1 (stereo unspecified) | – |
| 990 nM | CC(Cc1c[nH]c2ccccc12)NS(=O)(=O)c1cc(Cl)c(Cl)cc1Cl (stereo unspecified) | IC50 (Progesterone receptor): 440 nM; IC50 [1]: 1000 nM |
| > 10000 nM | COc1ccc(S(=O)(=O)NC(C)Cc2c[nH]c3ccccc23)cc1 (stereo unspecified) | – |
| 4600 nM | CC(Cc1c[nH]c2ccccc12)NS(=O)(=O)c1cc(Cl)cc(Cl)c1 (stereo unspecified) | – |
| 40 nM | Cc1cc(C)c(S(=O)(=O)NC(C)Cc2c[nH]c3ccccc23)c(C)c1 (stereo unspecified) | IC50 (Progesterone receptor): 1400 nM; IC50 [1]: 290 nM; Ratio IC50 (Homo sapiens [2]): 7; Ratio IC50 (Homo sapiens [3]): 35 |
| > 10000 nM | CC(Cc1c[nH]c2ccccc12)NS(=O)(=O)c1ccccc1 (stereo unspecified) | – |
| 4100 nM | CC(Cc1c[nH]c2ccccc12)NS(=O)(=O)c1ccccc1Cl (stereo unspecified) | – |
| 490 nM | Cc1cc(C)c(S(=O)(=O)NC(C)Cc2c[nH]c3cc(C)ccc23)c(C)c1 (stereo unspecified) | – |
| – | C[C@@H]1C[C@H]2[C@@H]3CCC4=CC(=O)C=C[C@]4(C)[C@@]3(F)[C@@H](O)C[C@]2(C)[C@@]1(O)C(=O)CO [DEXAMETHASONE] | IC50 (Progesterone receptor): > 2000 nM |
| 1200 nM | CC(Cc1c[nH]c2ccccc12)NS(=O)(=O)c1cccc(Cl)c1Cl (stereo unspecified) | – |
| > 2000 nM | Cc1cc(C)c(C(=O)NC(C)Cc2c[nH]c3ccccc23)c(C)c1 (stereo unspecified) | – |
| > 10000 nM | CC(Cc1c[nH]c2ccccc12)NS(=O)(=O)c1cccc(C#N)c1 (stereo unspecified) | – |
| > 2000 nM | Cc1cc(C)c(S(=O)(=O)NCCc2c[nH]c3ccccc23)c(C)c1 | – |
| 1800 nM | Cc1cc(S(=O)(=O)NC(C)Cc2c[nH]c3ccccc23)c(C)cc1Cl (stereo unspecified) | – |
| 2600 nM | CC(Cc1c[nH]c2ccccc12)NS(=O)(=O)c1ccc(-c2ccccc2)cc1 (stereo unspecified) | – |
| 64 nM | CCC(Cc1c[nH]c2ccccc12)NS(=O)(=O)c1c(Cl)cc(Cl)cc1Cl (stereo unspecified) | – |
| > 10000 nM | Cc1cccc(S(=O)(=O)NC(C)Cc2c[nH]c3ccccc23)c1 (stereo unspecified) | – |

| SMILES | IC50 (Glucocorticoid receptor) | further results |
| --- | --- | --- |
| Cc1cc(C)c(CNC(C)Cc2c[nH]c3ccccc23)c(C)c1 (stereo unspecified) | > 2000 nM | – |
| CC(Cc1c[nH]c2ccccc12)NS(=O)(=O)c1c(Cl)cccc1Cl (stereo unspecified) | 240 nM | IC50 (Progesterone receptor): 170 nM; IC50 [1]: 1600 nM; Ratio IC50 (Homo sapiens [2]): 6 |
| CC(Cc1c[nH]c2ccccc12)NS(=O)(=O)c1ccc(C(C)C)cc1 (stereo unspecified) | 750 nM | IC50 (Progesterone receptor): 1000 nM; IC50 [1]: 1400 nM |
| CC(Cc1c[nH]c2ccccc12)NS(=O)(=O)c1ccc(C(C)(C)C)cc1 (stereo unspecified) | 735 nM | IC50 (Progesterone receptor): > 2000 nM; IC50 [1]: 1070 nM |
